Key:
[1] = tested on: alpha smooth muscle actin (α-SMA); experiment: TGF-b induced α-SMA expression in NHLFs (Western blot); format: cell-based, Human; details: NHLF, TGF-β (10 ng/ml) 48 h
Excerpt: (§1) The antifibrotic activity of compounds of the present invention has been monitored measuring the expression of fibrotic mediators, collagen I (Col-I) and alpha smooth muscle actin (α-SMA) after treatment in lung cells with TGF-β in comparison with Nintedanib (see Frank Hilberg et al, Cancer Res 2008 Jun. 15; 68(12):4774-82), and allosteric inhibitor NCT-503 (see Hamanaka et al., Am J Respir Cell Mol Biol. 2018 May; 58(5):585-593).
(§2) Human normal lung fibroblasts (NHLFs) were purchased from Lonza (Basel, Switzerland). NHFLs were cultured in Eagle's Minimum Essential medium (EMEM) w/o serine and glycine, supplemented with 10% Fetal Bovine Serum (FBS), antibiotics (50 U/ml penicillin and 0.05 mg/ml streptomycin) and 2 mM L-glutamine, in an atmosphere of 95% air and 5% CO2 at 37° C. NHLFs cultures were used between passage 1 and 9. Before all the experiments, cells were incubated overnight in serum-free medium.
NHLFs were seeded in 12-well plates at cultured until 70% of confluency. To examine the expression of fibrotic markers, cells were treated with different concentrations of Compounds and NCT-503 in EMEM medium for 1 h followed by stimulation with TGF-β for 48 h at 37° C., 5% CO2. Following cell treatments, medium was removed and whole cell extracts were prepared by directly adding to the well the 1× loading buffer (125 mM Tris-HCl pH 6.8, 4% SDS, 0.2% Orange G, 50% glycerol, 2.5% β-mercaptoethanol, Li-cor Biosciences), boiled for 5 min and then electrophoresed on Mini protean TGX gel 4-12% (Biorad). After electrophoresis, proteins were transferred to a nitrocellulose membrane. Immunodetection of Col-I, α-SMA and glyceraldeide 3-phosphate dehydrogenase (GAPDH) were obtained by using mouse anti-CollA1 (Santacruz), mouse anti-α-SMA (sigma) and rabbit anti-GAPDH (Cell Signaling Technology) all diluted at 1:1000 in TBS-tween 0.1%. […] Detection and quantification were performed with Odyssey imaging system (Li-cor) using GAPDH as loading control.

collagen I (Col-I) = experiment: TGF-b induced Collagen I expression in NHLFs (Western blot); format: cell-based, Human; details: NHLF
Excerpt: as §1, §2
NHLFs were seeded in 12-well plates at cultured until 70% of confluency. To examine the expression of fibrotic markers, cells were treated with different concentrations of Compounds and NCT-503 in EMEM medium for 1 h followed by stimulation with TGF-β for 48 h at 37° C., 5% CO2. […] Detection and quantification were performed with Odyssey imaging system (Li-cor) using GAPDH as loading control.

[2] = Plasma exposure after the last dose in bleomycin model (Example 5); format: in vivo, Male C57BL6/J mice; details: 0.5 h, 2 h and 7 h
Experimental: The Bioanalysis of Compound 19 in plasma was carried out under the same experimental conditions as reported in Example 3.
Plasma exposure of Compound 19 was determined following the last oral dose at three timepoints (0.5 h, 2 h and 7 h).

[3] = tested on: bleomycin-induced pulmonary fibrosis; experiment: Bleomycin-induced pulmonary fibrosis in male mice (Example 5)
Experimental: Male C57BL6/J mice (7-8 weeks old) were purchased from the Envigo RMS (San Pietro al Natisone (UD), Italy). All mice were maintained under pathogen-free conditions and were provided food and water ad libitum.
Lung injury was induced by double oropharyngeal instillation of Bleomycin hydrochloride (BLM, BAXTER) at day 0 and day 4 at the doses of 0.02 U/mouse in 50 μl of saline solution (0.9%). Control animals received double oropharyngeal instillation of 50 μl of saline solution.
Compound 19 was orally administered twice daily, starting on day 7 after the first oropharyngeal administration of bleomycin at the two doses of 400 and 600 mg/kg/day, 10 ml/kg, dissolved in 0.5% Tween 80, 0.5% Methylcellulose in H2O and treatment lasted for two weeks.
A group of animals was treated with Nintedanib esylate salt, at the dose of 60 mg/kg/day, 10 ml/kg, once daily, to compare the efficacy of the test compounds with an FDA approved drug for the treatment of IPF patients. Control mice were given vehicle-only over the same time intervals. Weight of all animals has been assessed twice a week starting from day 0 until day 21.
On days 21, mice were anesthetized by intraperitoneal injection of thiopental (200 mg/kg/10 ml; pentothal sodium, MSD Animal Health Srl). Blood was withdrawn by cardiac puncture and collected in heparine tubes. Plasma was obtained after centrifugation of blood at 10,000 g for 10 min. Lungs were lavage with saline solution through the heart, formalin fixed and paraffin embedded, and sections were stained with Masson's Trichrome to evaluate the grade and severity of fibrosis and collagen deposition.
Masson's Trichrome stained slides were also scanned with NanoZoomer S60 (Hamamatsu Photonics K.K., Shizuoka, Japan) and acquired into the Visiopharm Integrator System (VIS; version 2017.2.4.3387) for a quantification of pulmonary fibrosis by automated analysis with the support of a VIS Analysis Protocol Package (APP). The present APP has been designed to identify and then quantify the fibrotic tissue, detecting accumulation of altered connective tissue, excess of collagen deposition and cellular density.
To quantify lung protein content and the levels of specific proteins as markers of fibrosis and collagen deposition, lungs from subgroups of animals were weighted, homogenized in Phosphate buffer solution (PBS) and proteins of interest were quantified by immunometric or colorimetric assays. Hydroxyproline content was determined using the Hydroxyproline Colorimetric Assay Kit (Sigma MAK008, USA) according to the manufacturer's protocol. WISP-1, CollagenI, pro-CollagenI and Elastin were determined by Elisa kits. Protein quantification was performed using DC Protein Assay (Bio-Rad Laboratories, Italy). Plasma serine levels were measured using the DL-Serine Assay Kit (Abcam, Cambridge, MA).

CC(C)C(C(=O)O)c1ccc(C2(NC(=O)c3cc4c(Cl)c(Cl)ccc4n3C)CCOC2)cc1 (racemic) [Compound 19, (±)-2-(4-(3-(4,5-Dichloro-1-methyl-1H-indole-2-carboxamido)tetrahydro-furan-3-yl)phenyl)-3-methylbutanoic acid]
inhibition of release of α-SMA (comparison, FIG. 2) ([1]; Compound 19 50 uM vs NCT-503 50 uM and Nintedanib 1 uM): in a more efficacious manner than the NCT-503 (50 uM) and even more than the Nintedanib (1 uM) | inhibition at 50 µM ([1]; Homo sapiens, 50 uM, read-out: TGF-b induced a-sma (% inh. 50 uM)): 97% | IC50 (collagen I (Col-I); Homo sapiens, TGF-β 48 h, confidence interval in brackets, read-out: TGF-b induced Collagen I (pIC50-C.I.) (converted)): 31.6 nM | FMT induced by TGF-β, Collagen protein expression (FIG. 1) (collagen I (Col-I)): decrease of Collagen protein expression | plasma exposure following the last oral dose [2]: good oral exposure | circulating serine levels in plasma ([3]; 400 and 600 mg/kg/day): significant reduction at both doses | reduction of lung/body weight ([3]; Compound 19 highest dose (600 mg/kg/day), Nintedanib esylate 60 mg/kg/day, not significant): −31% | body weight during 2-weeks of treatment ([3]; compared to BLM/Vehicle treated group): did not lose additional weight | Ashcroft score (FIG. 11A) ([3]; day 21): reduced | collagen content (automatic collagen deposition quantification, FIG. 13) ([3]; day 21): reached statistical significance with the highest dose | frequency of Ashcroft score classes (FIG. 11B) ([3]; day 21): reduced the frequency of the most severe scores of fibrosis | reduction of tissue area occupied by fibrotic lesions (automated analysis) ([3]; day 21): ~25% | severity of fibrosis (automated analysis, FIG. 12) ([3]; day 21): significant reduction of severity of fibrosis | deaths during treatment ([3]; highest tested dose (600 mg/kg/day), two animals died in BLM/Vehicle group): only one animal died | lung levels of Hydroxyproline, Collagen I and WISP-1 ([3]; lung homogenates): significantly reduced

— US20260207551A1, “PHOSPHOGLICERATE DEHYDROGENASE INHIBITORS FOR THE TREATMENT OF FIBROSIS” (CHIESI FARMACEUTICI S.P.A., priority 2022, published 2026)
